Reference: the supplement of paper PMC4862054

Columns and labels:
CAL-51 [1] = experiment: normalised viability (% of control), CellTiter-Blue; higher = more viable cells (about 100 = DMSO control); conditions: 1 nM; incubation time: 72 h
Method: (§1)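 DSRT, CellTiter-Blue viability, 72 h incubation. Signal is normalised to DMSO and benzethonium chloride controls. Value is the normalised response at dose 3.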

MDA-MB-468 [2] = experiment: as above; conditions: 10 nM; incubation time: 72 h
Method: as §1

CAL-120 = experiment: as above; conditions: 10 nM; incubation time: 72 h
Method: as §1

MDA-MB-231 [3] = experiment: as above; conditions: 10 nM; incubation time: 72 h
Method: as §1

CAL-148 [4] = experiment: as above; conditions: 1 nM; incubation time: 72 h
Method: as §1

MDA-MB-436 [5] = experiment: as above; conditions: 10 nM; incubation time: 72 h
Method: as §1

Hs578T [6] = experiment: as above; conditions: 10 nM; incubation time: 72 h
Method: as §1

CAL-85-1 [7] = experiment: as above; conditions: 1 nM; incubation time: 72 h
Method: as §1

HCC1937 = experiment: as above; conditions: 10 nM; incubation time: 72 h
Method: as §1

SK-BR-3 [8] = experiment: as above; conditions: 10 nM; incubation time: 72 h
Method: as §1

HDQ-P1 [9] = experiment: as above; conditions: 1 nM; incubation time: 72 h
Method: as §1

HCC1599 [10] = experiment: as above; conditions: 10 nM; incubation time: 72 h
Method: as §1

CAL-51 [11] = experiment: drug sensitivity score (DSS), CellTiter-Blue viability (DSS (AUC-based score)); higher = stronger viability inhibition; extreme values may be limits of the assay; conditions: incubation time: 72 h
In short: (§2)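 Into 384-well plates carrying compound in a 5- or 9-concentration series went 20 µl of breast cancer cell suspension, followed by 72 h of incubation. Adding 2.5 µl CellTiter-Blue per well and incubating 2 h at 37 °C preceded fluorescence measurement at 560/590 nm. After normalisation of each plate to 0.1 % DMSO and a positive kill control, dose-response curves were fitted and the area beneath them taken as the drug sensitivity score.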

MDA-MB-468 [12] = experiment: as above; conditions: incubation time: 72 h
In short: as §2

BT-474 = experiment: as above; conditions: incubation time: 72 h
In short: as §2

MDA-MB-231 [13] = experiment: as above; conditions: incubation time: 72 h
In short: as §2

HCC1143 = experiment: as above; conditions: incubation time: 72 h
In short: as §2

MFM-223 = experiment: as above; conditions: incubation time: 72 h
In short: as §2

CAL-148 [14] = experiment: as above; conditions: incubation time: 72 h
In short: as §2

MDA-MB-453 = experiment: as above; conditions: incubation time: 72 h
In short: as §2

DU-4475 = experiment: as above; conditions: incubation time: 72 h
In short: as §2

MDA-MB-436 [15] = experiment: as above; conditions: incubation time: 72 h
In short: as §2

Hs578T [16] = experiment: as above; conditions: incubation time: 72 h
In short: as §2

CAL-85-1 [17] = experiment: as above; conditions: incubation time: 72 h
In short: as §2

SK-BR-3 [18] = experiment: as above; conditions: incubation time: 72 h
In short: as §2

HDQ-P1 [19] = experiment: as above; conditions: incubation time: 72 h
In short: as §2

HCC1599 [20] = experiment: as above; conditions: incubation time: 72 h
In short: as §2

BT-549 = experiment: as above; conditions: incubation time: 72 h
In short: as §2

`CC[C@@]1(O)C(=O)OCc2c1cc1n(c2=O)Cc2cc3c(CN(C)C)c(O)ccc3nc2-1` [Topotecan] showed a normalised viability (CAL-51 [1]) of 96.5%, a normalised viability (MDA-MB-468 [2]) of 93% and a normalised viability (CAL-120) of 76.4%. It also gave a normalised viability (MDA-MB-231 [3]) of 90.1%, a normalised viability (CAL-148 [4]) of 96.4% and a normalised viability (MDA-MB-436 [5]) of 107%. It also gave a normalised viability (Hs578T [6]) of 101%, a normalised viability (CAL-85-1 [7]) of 91.2% and a normalised viability (HCC1937) of 81.3%. The normalised viability (SK-BR-3 [8]) was 85.5%, the normalised viability (HDQ-P1 [9]) was 114% and the normalised viability (HCC1599 [10]) was 109%. It also gave a drug sensitivity score (CAL-51 [11]) of 5.2, a drug sensitivity score (MDA-MB-468 [12]) of 11.6 and a drug sensitivity score (BT-474) of 0. The drug sensitivity score (MDA-MB-231 [13]) was 3.58, the drug sensitivity score (HCC1143) was 5.56 and the drug sensitivity score (MFM-223) was 0. For the same compound, the drug sensitivity score (CAL-148 [14]) was 11.5, the drug sensitivity score (MDA-MB-453) was 3.26 and the drug sensitivity score (DU-4475) was 11.1. It also gave a drug sensitivity score (MDA-MB-436 [15]) of 6.23, a drug sensitivity score (Hs578T [16]) of 0 and a drug sensitivity score (CAL-85-1 [17]) of 3.4. The drug sensitivity score (SK-BR-3 [18]) was 11.3, the drug sensitivity score (HDQ-P1 [19]) was 0.903 and the drug sensitivity score (HCC1599 [20]) was 3.96. For the same compound, the drug sensitivity score (BT-549) was 4.7.
